Source: patent US5520918A, “Low irritant skin-cosmetic composition for daily topical use, its application and manufacture” (Mary Kay Cosmetics, Inc., priority 1994, dated 1996)

Experiments:
skin pH = assay: Test I: duration of skin pH changes; format: in vivo, human (volunteer subjects); details: text to Test I
Experimental: Tests were performed on volunteer subjects using the procedures, conditions and ingredients substantially as described in connection with Test F above, while employing the proportion of active acidic ingredients indicated.

hair-loss = assay: Hair-loss prevention efficacy of minoxidil combined with the two-component acid system (preliminary data); format: in vivo

For O=C(O)C(O)C(O)C(=O)O (stereo not drawn) [(+)tartaric acid], the “duration of impact on skin pH changes” value (skin pH) was 2 hours.
With Nc1cc(N2CCCCC2)nc(N)[n+]1[O-] [minoxidil] the “efficacy of minoxidil in combination (in words)” value (hair-loss) was “enhanced by combination with the inventive two-component acid system”.
For O=C(O)c1ccccc1O [salicylic acid, 2-hydroxybenzoic acid], the “water solubility (in words)” value was “only moderately or sparingly water soluble” and the water solubility (text to Test I) was “less than 1 g. in 5 ml. of water”.
